# “And” between values parts separate entries of the source, which are not always exact repeats. Equal entries are not always repeated.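 Protocol summary: plate cells (96-well), add compound at 5 concentrations, incubate 48 h, interpolate endpoints linearly. GI50 marks 50% less growth. TGI marks complete inhibition of growth.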
# How the values were obtained:
# Assay in all cases: DTP human tumour cell line panel, 48 h
# CCRF-CEM leukemia = test system: CCRF-CEM leukemia
# HCT-15 colon = test system: HCT-15 colon
# LOX IMVI melanoma = test system: LOX IMVI melanoma
# SK-MEL-2 melanoma = test system: SK-MEL-2 melanoma
# U251 CNS = test system: U251 CNS
# SK-OV-3 ovarian = test system: SK-OV-3 ovarian
# KM12 colon = test system: KM12 colon
# UO-31 renal = test system: UO-31 renal
# RPMI-8226 leukemia = test system: RPMI-8226 leukemia
# UACC-62 melanoma = test system: UACC-62 melanoma
Compound,TGI (CCRF-CEM leukemia),TGI (HCT-15 colon),TGI (LOX IMVI melanoma),TGI (SK-MEL-2 melanoma),TGI (U251 CNS),TGI (SK-OV-3 ovarian),TGI (KM12 colon),TGI (UO-31 renal),TGI (RPMI-8226 leukemia),TGI (UACC-62 melanoma),GI50 (CCRF-CEM leukemia) [µM],GI50 (HCT-15 colon),GI50 (LOX IMVI melanoma),GI50 (SK-MEL-2 melanoma) [µM],GI50 (U251 CNS) [µM],GI50 (SK-OV-3 ovarian),GI50 (KM12 colon),GI50 (UO-31 renal),GI50 (RPMI-8226 leukemia),GI50 (UACC-62 melanoma) [µM]
CCCCCCCC(=O)OCC1OC(n2cc(F)c(=O)[nH]c2=O)C(N)C(OC(=O)CCCCCCC)C1O (stereo not drawn),40.4 µM,34.2 µM,32.5 µM,38.5 µM,33.6 µM,93.8 µM,42.3 µM,36.6 µM,53.5 µM,32.4 µM,,,,,,,,,,
O=c1[nH]c(-c2cccc(F)c2)cc2cc(F)ccc12,> 100 µM,> 100 µM,> 100 µM,> 100 µM,> 100 µM,> 100 µM,> 100 µM,> 100 µM,> 100 µM,> 100 µM,0.369,0.119 µM,0.613 µM,0.513,0.47,0.616 µM,0.307 µM,1.65 µM,0.355 µM,0.571
O=C(Nc1ncc(Cc2cccc(C(F)(F)F)c2)s1)c1ccc2c(c1)OCCO2,> 100 µM,> 100 µM,> 100 µM,> 48.6 µM,> 48.2 µM,46.6 µM,> 100 µM,> 100 µM,> 100 µM,> 100 µM,0.411,0.139 µM,0.565 µM,0.943,0.385,0.746 µM,0.196 µM,1.09 µM,0.483 µM,0.372
C=C(C)C(C1C=C(CCC(C=O)=C(C)C)C(=O)O1)C1(OC)C=C(C)C(=O)O1 (stereo not drawn),> 100 µM,> 100 µM,> 100 µM,> 100 µM,> 100 µM,> 100 µM,> 100 µM,> 100 µM,> 100 µM,> 100 µM,25.3,> 100 µM,39.6 µM,> 100,74.7,> 100 µM,> 100 µM,97.1 µM,> 100 µM,95.4
CCCCNCCCNCCCNC(=O)c1csc(-c2csc(CCNC(=O)C(NC(=O)C(C)C(O)C(C)NC(=O)C(NC(=O)c3nc(C(CC(N)=O)NCC(N)C(N)=O)nc(N)c3C)C(OC3OC(CO)C(O)C(O)C3OC3OC(CO)C(O)C(OC(N)=O)C3O)c3cnc[nH]3)C(C)O)n2)n1 (stereo not drawn),50 µM and > 100 µM,,7.15 µM and 6.49 µM,17.3 µM,50 µM and 8.07 µM,50 µM and 36.2 µM,> 100 µM,15.8 µM and 3.81 µM,> 100 µM,11.8 µM and 4.8 µM,6.4,2.12 µM,0.194 µM,,0.807,9.49 µM,> 50 µM,,19.7 µM,0.68
NC(=S)N/N=C/c1ncccc1O,21.8 µM,> 439 µM,98.7 µM and 54.6 µM,> 40 µM and 135 µM,> 89.9 µM and 557 µM,49.1 µM and 130 µM,> 1000 µM,> 33.8 µM and 6.46 µM,> 1000 µM,11 µM and 9.55 µM,1.15,2.67 µM,5.29 µM,21.3,3.35,4.76 µM,4.67 µM,1.48 µM,5.92 µM and 2.07 µM,1.67
CN1Nc2ccccc2CC1=O,> 100 µM,> 100 µM,> 100 µM,> 100 µM,> 100 µM,> 100 µM,> 100 µM,> 100 µM,> 100 µM,> 100 µM,,,,,,,,,,
COc1ccc(CNc2c3ccccc3nc3ccccc23)cc1F,35.6 µM,7.8 µM,3.63 µM,13.4 µM,15.5 µM,16.3 µM,15.1 µM,6.15 µM,7.25 µM,12.9 µM,3.81,2.45 µM,1.76 µM,3.45,3.82,3.66 µM,3.93 µM,1.49 µM,2.64 µM,2.97
CCOC(=O)Cc1csc(Nc2ccccc2[N+](=O)[O-])n1,> 100 µM,> 100 µM,> 70.2 µM,> 100 µM,> 100 µM,> 100 µM,> 100 µM,> 100 µM,> 100 µM,> 100 µM,,,,,,,,,,
C/C(=N\NC(N)=O)c1sc(-c2nc(C)c(/C(C)=N/NC(N)=O)s2)nc1C,> 100 µM,46.1 µM,> 100 µM,> 100 µM,> 100 µM,> 100 µM,> 100 µM,> 100 µM,> 100 µM,> 100 µM,,,,,,,,,,
O=C1C/C(Br)=C\c2ccccc2-c2ccccc21,10.4 µM,3.36 µM,2.43 µM,12.2 µM,6.83 µM,10.1 µM,11.5 µM,6.87 µM,5.28 µM,5.09 µM,,,,,,,,,,
O=C1c2cccc3cccc(c23)C(=O)N1CCN(CCO)CCO,> 100 µM,56.2 µM,34.5 µM,30.2 µM,> 100 µM,> 100 µM,> 100 µM,> 100 µM,56.4 µM,37.5 µM,,,,,,,,,,
COc1ccc2c(=O)oc3c(OC)cc(CCN(C)C)c4c(=O)oc1c2c34,3.5 µM and 3.06 µM,36.1 µM and 12.3 µM,31.3 µM and 18 µM,33.1 µM and 29 µM,27.6 µM and 19 µM,33.7 µM and 15.9 µM,36 µM and 13.4 µM,31.1 µM and 15.6 µM,41.3 µM and 19.8 µM,31.7 µM and 16.6 µM,,16.6 µM and 5.11 µM,17 µM and 7.81 µM,,,19.5 µM and 8.47 µM,18 µM and 6.41 µM,17.3 µM and 8.48 µM,18.1 µM and 8.54 µM,
O/N=C1\CCCCC1C(NO)c1ccccc1 (stereo not drawn),> 100 µM,> 100 µM,> 100 µM,> 100 µM,> 100 µM,> 100 µM,> 100 µM,> 100 µM,> 100 µM,> 100 µM,,,,,,,,,,
CCN(Cc1c(F)cccc1OC)c1ccc(CO)c(Cl)c1,> 79.1 µM,41.5 µM,33.1 µM,21.7 µM,26.7 µM,19.9 µM,49.8 µM,48.8 µM,23.1 µM,0.953 µM,20.9,12.8 µM,16.9 µM,2.39,0.716,3.65 µM,15.9 µM,14.9 µM,1.44 µM,0.0961
COC(=O)/C=C/c1cc(OC(C)=O)c2c(c1)C(C(=O)OC)C(c1ccc(OC(C)=O)c(OC(C)=O)c1)O2 (stereo not drawn),> 100 µM,> 100 µM,> 83.3 µM,> 100 µM,> 50.9 µM,> 73.9 µM,32.1 µM,> 72.3 µM,5.25 µM,21.8 µM,0.0404,0.0445 µM,0.0597 µM,3.69,0.11,2.46 µM,0.334 µM,0.99 µM,0.0574 µM,0.298
COc1cc2c(cc1OCCCN1CCN(CCCOc3cc4c(cc3OC)C(=O)N3CC(F)(F)C[C@H]3C=N4)CC1)N=C[C@@H]1CC(F)(F)CN1C2=O,8.51 µM,36.7 µM,4.83 µM,23.1 µM,14.3 µM,> 100 µM,17.5 µM,25.7 µM,7.73 µM,13.2 µM,0.979,16.2 µM,1.89 µM,10.3,3.36,8.64 µM,4.1 µM,11.4 µM,2.2 µM,3.05
COc1ccc(-c2c(C#N)c(N3CCOCC3)nc3[nH]c(=S)[nH]c(=S)c23)cc1OC,> 100 µM,> 100 µM,60.9 µM,> 100 µM,> 100 µM,> 100 µM,> 100 µM,> 100 µM,70.5 µM,76.1 µM,41.3,43.6 µM,16.7 µM,> 100,46.5,29.1 µM,29.1 µM,82.1 µM,9.74 µM,20.1
COc1ccc(-c2cc(=O)oc3c4c(ccc23)OCN(Cc2ccc(F)cc2)C4)cc1,82 µM,31.8 µM,32.3 µM,31.3 µM,29 µM,52.9 µM,35.2 µM,37.9 µM,37.1 µM,29.3 µM,25.8,15.4 µM,16.7 µM,16.3,14.8,19.1 µM,17.6 µM,7.26 µM,15.4 µM,14.7

# From PubChem BioAssay (NCI)
